# PubChem BioAssay (NCI)
#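 In this assay, cells in 96-well plates receive the compound at five concentrations for 48 hours. Endpoints are linearly interpolated between the surrounding concentrations. At the TGI there is no net growth.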
# Columns and labels:
# Assay in all cases: NCI-60 cell line screen, 48 h
# HOP-62 NSCLC = system: HOP-62 NSCLC
# A498 renal = system: A498 renal
# SF-295 CNS = system: SF-295 CNS
# HCT-116 colon = system: HCT-116 colon
# SF-268 CNS = system: SF-268 CNS
# OVCAR-8 ovarian = system: OVCAR-8 ovarian
# NCI-H226 lung = system: NCI-H226 lung
# RPMI-8226 leukemia = system: RPMI-8226 leukemia
# MDA-MB-435 = system: MDA-MB-435
# MALME-3M melanoma = system: MALME-3M melanoma
# NCI-H460 lung = system: NCI-H460 lung
# SNB-19 CNS = system: SNB-19 CNS
# MOLT-4 leukemia = system: MOLT-4 leukemia
# NCI-H23 lung = system: NCI-H23 lung
# MDA-N = system: MDA-N
# MCF7 breast = system: MCF7 breast
# SF-539 CNS = system: SF-539 CNS
# NCI-H522 lung = system: NCI-H522 lung
# DU-145 prostate = system: DU-145 prostate
# KM12 colon = system: KM12 colon
# HT29 colon = system: HT29 colon
# HCC-2998 colon = system: HCC-2998 colon
# UO-31 renal = system: UO-31 renal
# SK-MEL-5 melanoma = system: SK-MEL-5 melanoma
# COLO 205 colon = system: COLO 205 colon
# SW-620 colon = system: SW-620 colon
# PC-3 prostate = system: PC-3 prostate
# SN12C renal = system: SN12C renal
# T-47D breast = system: T-47D breast
# SR leukemia = system: SR leukemia
# OVCAR-5 ovarian = system: OVCAR-5 ovarian
# OVCAR-3 ovarian = system: OVCAR-3 ovarian
# TK-10 renal = system: TK-10 renal
# NCI/ADR-RES ovarian = system: NCI/ADR-RES ovarian
# SK-OV-3 ovarian = system: SK-OV-3 ovarian
# HOP-92 NSCLC = system: HOP-92 NSCLC
# UACC-257 melanoma = system: UACC-257 melanoma
# HL-60(TB) leukemia = system: HL-60(TB) leukemia
# SK-MEL-28 melanoma = system: SK-MEL-28 melanoma
# EKVX NSCLC = system: EKVX NSCLC
# RXF 393 renal = system: RXF 393 renal
# OVCAR-4 ovarian = system: OVCAR-4 ovarian
# SNB-75 CNS = system: SNB-75 CNS
# CCRF-CEM leukemia = system: CCRF-CEM leukemia
# IGROV1 ovarian = system: IGROV1 ovarian
# A549 NSCLC = system: A549 NSCLC
# M14 melanoma = system: M14 melanoma
# K-562 leukemia = system: K-562 leukemia
# ACHN renal = system: ACHN renal
# LOX IMVI melanoma = system: LOX IMVI melanoma
# CAKI-1 renal = system: CAKI-1 renal
# MDA-MB-231 breast = system: MDA-MB-231 breast
# 786-0 renal = system: 786-0 renal
# HCT-15 colon = system: HCT-15 colon
# UACC-62 melanoma = system: UACC-62 melanoma
# U251 CNS = system: U251 CNS
# BT-549 breast = system: BT-549 breast
# SK-MEL-2 melanoma = system: SK-MEL-2 melanoma
# HS 578T breast = system: HS 578T breast
compound,measurement,setting,value
CSc1ncnc2c1ncn2CCC(=O)OC(C)(C)C,TGI,HOP-62 NSCLC,> 100 µM
same,TGI,A498 renal,> 100 µM
same,TGI,SF-295 CNS,> 100 µM
same,TGI,HCT-116 colon,> 100 µM
same,TGI,SF-268 CNS,> 100 µM
same,TGI,OVCAR-8 ovarian,> 100 µM
same,TGI,NCI-H226 lung,> 100 µM
same,TGI,RPMI-8226 leukemia,> 100 µM
same,TGI,MDA-MB-435,> 100 µM
same,TGI,MALME-3M melanoma,> 100 µM
same,TGI,NCI-H460 lung,> 100 µM
same,TGI,SNB-19 CNS,> 100 µM
same,TGI,MOLT-4 leukemia,> 100 µM
same,TGI,NCI-H23 lung,> 100 µM
same,TGI,MDA-N,> 100 µM
same,TGI,MCF7 breast,> 100 µM
same,TGI,SF-539 CNS,> 100 µM
same,TGI,NCI-H522 lung,> 100 µM
same,TGI,DU-145 prostate,> 100 µM
same,TGI,KM12 colon,> 100 µM
same,TGI,HT29 colon,> 100 µM
same,TGI,HCC-2998 colon,> 100 µM
same,TGI,UO-31 renal,> 100 µM
same,TGI,SK-MEL-5 melanoma,> 100 µM
same,TGI,COLO 205 colon,> 100 µM
same,TGI,SW-620 colon,> 100 µM
same,TGI,PC-3 prostate,> 100 µM
same,TGI,SN12C renal,> 100 µM
same,TGI,T-47D breast,> 100 µM
same,TGI,SR leukemia,> 100 µM
same,TGI,OVCAR-5 ovarian,> 100 µM
same,TGI,OVCAR-3 ovarian,> 100 µM
same,TGI,TK-10 renal,> 100 µM
same,TGI,NCI/ADR-RES ovarian,> 100 µM
same,TGI,SK-OV-3 ovarian,> 100 µM
same,TGI,HOP-92 NSCLC,> 100 µM
same,TGI,UACC-257 melanoma,> 100 µM
same,TGI,HL-60(TB) leukemia,> 100 µM
same,TGI,SK-MEL-28 melanoma,> 100 µM
same,TGI,EKVX NSCLC,> 100 µM
same,TGI,RXF 393 renal,> 100 µM
same,TGI,OVCAR-4 ovarian,> 100 µM
same,TGI,SNB-75 CNS,> 100 µM
same,TGI,CCRF-CEM leukemia,> 100 µM
same,TGI,IGROV1 ovarian,> 100 µM
same,TGI,A549 NSCLC,> 100 µM
same,TGI,M14 melanoma,> 100 µM
same,TGI,K-562 leukemia,> 100 µM
same,TGI,ACHN renal,> 100 µM
same,TGI,LOX IMVI melanoma,> 100 µM
same,TGI,CAKI-1 renal,> 100 µM
same,TGI,MDA-MB-231 breast,> 100 µM
same,TGI,786-0 renal,> 100 µM
N#CCCN(C(=O)Nc1ccccc1)[C@H]1CCCC[C@@H]1N(C(=O)Nc1ccccc1)c1ccccc1,TGI,HOP-62 NSCLC,> 100 µM
same,TGI,HCT-15 colon,> 100 µM
same,TGI,SF-295 CNS,> 100 µM
same,TGI,HCT-116 colon,> 100 µM
same,TGI,OVCAR-8 ovarian,> 100 µM
same,TGI,NCI-H226 lung,> 100 µM
same,TGI,RPMI-8226 leukemia,> 100 µM
same,TGI,MDA-MB-435,> 100 µM
same,TGI,MALME-3M melanoma,> 100 µM
same,TGI,NCI-H460 lung,> 100 µM
same,TGI,SNB-19 CNS,> 100 µM
same,TGI,MOLT-4 leukemia,> 100 µM
same,TGI,NCI-H23 lung,> 100 µM
same,TGI,MDA-N,> 100 µM
same,TGI,UACC-62 melanoma,> 100 µM
same,TGI,MCF7 breast,> 100 µM
same,TGI,SF-539 CNS,> 100 µM
same,TGI,NCI-H522 lung,> 100 µM
same,TGI,DU-145 prostate,> 100 µM
same,TGI,KM12 colon,> 100 µM
same,TGI,HT29 colon,> 100 µM
same,TGI,HCC-2998 colon,> 100 µM
same,TGI,UO-31 renal,> 100 µM
same,TGI,SK-MEL-5 melanoma,> 100 µM
same,TGI,COLO 205 colon,> 100 µM
same,TGI,U251 CNS,> 100 µM
same,TGI,SW-620 colon,> 100 µM
same,TGI,BT-549 breast,> 100 µM
same,TGI,PC-3 prostate,> 100 µM
same,TGI,SN12C renal,> 100 µM
same,TGI,T-47D breast,> 100 µM
same,TGI,SR leukemia,> 100 µM
same,TGI,OVCAR-5 ovarian,> 100 µM
same,TGI,OVCAR-3 ovarian,> 100 µM
same,TGI,TK-10 renal,> 100 µM
same,TGI,SK-MEL-2 melanoma,> 100 µM
same,TGI,NCI/ADR-RES ovarian,> 100 µM
same,TGI,SK-OV-3 ovarian,> 100 µM
same,TGI,HOP-92 NSCLC,> 100 µM
same,TGI,UACC-257 melanoma,> 100 µM
same,TGI,SK-MEL-28 melanoma,> 100 µM
same,TGI,EKVX NSCLC,> 100 µM
same,TGI,RXF 393 renal,> 100 µM
same,TGI,OVCAR-4 ovarian,> 100 µM
same,TGI,SNB-75 CNS,> 100 µM
same,TGI,CCRF-CEM leukemia,> 100 µM
same,TGI,IGROV1 ovarian,> 100 µM
same,TGI,A549 NSCLC,> 100 µM
same,TGI,M14 melanoma,> 100 µM
same,TGI,K-562 leukemia,> 100 µM
same,TGI,ACHN renal,> 100 µM
same,TGI,LOX IMVI melanoma,> 100 µM
same,TGI,CAKI-1 renal,> 100 µM
same,TGI,MDA-MB-231 breast,> 100 µM
same,TGI,786-0 renal,> 100 µM
COC(=O)C1=C(O)C(C(=O)OC)[C@]2(O)[C@H](C(=O)OC)[C@H]1C[C@@H](c1ccc(C(F)(F)F)cc1)[C@H]2C(=O)OC (some centres undefined),TGI,HOP-62 NSCLC,> 100 µM
same,TGI,A498 renal,13.9 µM
same,TGI,HCT-15 colon,> 100 µM
same,TGI,SF-295 CNS,48.3 µM
same,TGI,HCT-116 colon,5.96 µM
same,TGI,SF-268 CNS,> 100 µM
same,TGI,OVCAR-8 ovarian,> 100 µM
same,TGI,NCI-H226 lung,7.36 µM
same,TGI,RPMI-8226 leukemia,> 100 µM
same,TGI,MDA-MB-435,> 100 µM
same,TGI,MALME-3M melanoma,22.4 µM
same,TGI,NCI-H460 lung,> 100 µM
same,TGI,SNB-19 CNS,68.9 µM
same,TGI,MOLT-4 leukemia,> 100 µM
same,TGI,NCI-H23 lung,21.7 µM
same,TGI,MDA-N,17.2 µM
same,TGI,UACC-62 melanoma,29 µM
same,TGI,MCF7 breast,> 100 µM
same,TGI,SF-539 CNS,4 µM
same,TGI,DU-145 prostate,28.1 µM
same,TGI,KM12 colon,53.3 µM
same,TGI,HT29 colon,25.1 µM
same,TGI,HCC-2998 colon,14.7 µM
same,TGI,UO-31 renal,8.42 µM
same,TGI,SK-MEL-5 melanoma,10.9 µM
same,TGI,HS 578T breast,> 100 µM
same,TGI,COLO 205 colon,11.5 µM
same,TGI,U251 CNS,14.9 µM
same,TGI,SW-620 colon,> 100 µM
same,TGI,BT-549 breast,> 100 µM
same,TGI,PC-3 prostate,94.6 µM
same,TGI,SN12C renal,27.6 µM
same,TGI,T-47D breast,> 100 µM
same,TGI,SR leukemia,> 100 µM
same,TGI,OVCAR-5 ovarian,15 µM
same,TGI,OVCAR-3 ovarian,54.1 µM
same,TGI,TK-10 renal,22.5 µM
same,TGI,SK-MEL-2 melanoma,15.1 µM
same,TGI,SK-OV-3 ovarian,> 100 µM
same,TGI,HOP-92 NSCLC,34 µM
same,TGI,UACC-257 melanoma,23.5 µM
same,TGI,HL-60(TB) leukemia,30.2 µM
same,TGI,SK-MEL-28 melanoma,35.4 µM
same,TGI,EKVX NSCLC,32.4 µM
same,TGI,RXF 393 renal,6.5 µM
same,TGI,OVCAR-4 ovarian,> 100 µM
same,TGI,SNB-75 CNS,26.7 µM
same,TGI,IGROV1 ovarian,29 µM
same,TGI,A549 NSCLC,> 100 µM
same,TGI,M14 melanoma,29.4 µM
same,TGI,K-562 leukemia,> 100 µM
same,TGI,ACHN renal,> 100 µM
same,TGI,LOX IMVI melanoma,7.3 µM
same,TGI,CAKI-1 renal,> 100 µM
same,TGI,MDA-MB-231 breast,> 100 µM
same,TGI,786-0 renal,23.4 µM
